From patent US8389523B2, “Substituted quinoxaline and an agrochemical composition thereof” (Kumiai Chemical Industry Co., Ltd., priority 2007, dated 2013)

Key:
Format in all cases: in vivo
Parameters in all cases: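 grade 0 to 5 of growth suppression where 5 is 90% or more and 0 below 10%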
[1] = tested on: Echinochloa oryzicola Vasing; assay: Herbicidal effects in paddy field soil treatment (Test Example 1); details: paddy field soil treatment; 1000 g of the active ingredient per hectare; wettable powder added dropwise on water surface; 21st day after treatment
Procedure, shortened: (§1)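 Paddy soil pre-emergence test: seeds sown, flooded 3 cm; next day wettable powder in water applied dropwise to water surface, 1000 g a.i./ha; greenhouse; effect rated visually on scale at 21 d post-treatment.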

[2] = tested on: Scirpus juncoides Roxb. var. ohwianus. T. Koyama; assay: as above; details: paddy field soil treatment; 1000 g of the active ingredient per hectare; wettable powder added dropwise on water surface; 21st day after treatment
Procedure, shortened: as §1

[3] = tested on: Monochoria vaginalis (Burm. f.) Presl var. plantaginea (Roxb.) Solms-Laub.; assay: as above; details: paddy field soil treatment; 1000 g of the active ingredient per hectare; wettable powder added dropwise on water surface; 21st day after treatment
Procedure, shortened: as §1

[4] = tested on: Abutilon theophrasti medicus; assay: Herbicidal effects in upland field foliar treatment (Test Example 3); details: criteria of Table 138; for herbicidal effects on Abutilon theophrasti medicus: 1000 g of the active ingredient per hectare, 14th day after the treatment, wettable powder; for herbicidal effect (index) on Abutilon theophrasti medicus: 1000 g active ingredient per hectare, 14th day after treatment
Procedure, shortened: (§2)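 Greenhouse pot test, upland soil; 2-wk-old plants sprayed from above with water-diluted wettable powder (1000 L/ha spray volume, 1000 g a.i./ha). Regrown in greenhouse; visual herbicidal score on day 14 post-treatment.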

[5] = tested on: Echinochloa crus-galli (L.) P. Beauv. var. crus-galli; assay: as above; details: criteria of Table 138; for herbicidal effects on Echinochloa crus-galli (L.) P. Beauv. var. crus-galli: 1000 g of the active ingredient per hectare, 14th day after the treatment, wettable powder; for herbicidal effect (index) on Echinochloa crus-galli (L.) P. Beauv. var. crus-galli: 1000 g active ingredient per hectare, 14th day after treatment
Procedure, shortened: as §2

Amaranthus viridis L. [6] = assay: as above; details: criteria of Table 138; for herbicidal effects on Amaranthus viridis L.: 1000 g of the active ingredient per hectare, 14th day after the treatment, wettable powder; for herbicidal effect (index) on Amaranthus viridis L.: 1000 g active ingredient per hectare, 14th day after treatment
Procedure, shortened: as §2

[7] = tested on: Abutilon theophrasti medicus; assay: Herbicidal effects in upland field soil treatment (Test Example 2); details: 1000 g active ingredient per hectare, 21st day after treatment, criteria of Table 138
Procedure, shortened: (§3)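 Seeds sown in upland soil and covered; surface sprayed with water-diluted wettable powder, 1000 g a.i./ha, spray volume 1000 L/ha. Greenhouse growth, visual herbicidal rating at day 21.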

Amaranthus viridis L. [8] = assay: as above; details: 1000 g active ingredient per hectare, 21st day after treatment, criteria of Table 138
Procedure, shortened: as §3

Which “Herbicidal effects index, Echinochloa oryzicola Vasing” value [1] does the source give for `COc1cc(-n2c(=O)c(C(=O)C3=C(O)CCCC3=O)nc3ccccc32)cc(OC)c1OC` [II-185] here?
Its value is 4.

And the “Herbicidal effects index, Scirpus juncoides Roxb. var. ohwianus. T. Koyama” value [2]?
The value was 5.

And the “Herbicidal effects index, Monochoria vaginalis (Burm. f.) Presl var. plantaginea (Roxb.) Solms-Laub.” value (from here on “Herbicidal effects index … (Roxb.) Solms-Laub.”) [3]?
The value was 5.

What about the “herbicidal effects on Abutilon theophrasti medicus” value [4] of the same molecule?
The value was 5.

What about the “herbicidal effects on Echinochloa crus-galli (L.) P. Beauv. var. crus-galli” value [5] of the same molecule?
Its value is 4.

And the “herbicidal effects on Amaranthus viridis L.” value (Amaranthus viridis L. [6])?
Its value is 5.

What about the “herbicidal effect (index) on Abutilon theophrasti medicus” value [7] of the same molecule?
The value was 5.

What about the “herbicidal effect (index) on Amaranthus viridis L.” value (Amaranthus viridis L. [8]) of the same molecule?
The value was 5.

For `CC1=NOC(Cn2c(=O)c(C(=O)C3=C(O)CCCC3=O)nc3ccccc32)C1` (stereo not drawn) [I-212], which “Herbicidal effects index, Echinochloa oryzicola Vasing” value [1] is on record?
The value was 5.

And the “Herbicidal effects index, Scirpus juncoides Roxb. var. ohwianus. T. Koyama” value [2]?
Its value is 5.

What about the “Herbicidal effects index … (Roxb.) Solms-Laub.” value [3] of the same molecule?
The value was 5.

And the “herbicidal effect (index) on Abutilon theophrasti medicus” value [4]?
The value was 4.

And the “herbicidal effect (index) on Echinochloa crus-galli (L.) P. Beauv. var. crus-galli” value [5]?
The value was 5.

And the “herbicidal effect (index) on Amaranthus viridis L.” value (Amaranthus viridis L. [6])?
Its value is 5.

What about the “herbicidal effect (index) on Abutilon theophrasti medicus” value [7] of the same molecule?
The value was 5.

And the “herbicidal effect (index) on Amaranthus viridis L.” value (Amaranthus viridis L. [8])?
The value was 5.

How did the “Herbicidal effects index, Echinochloa oryzicola Vasing” value [1] turn out when `Cc1nnc(-n2c(=O)c(C(=O)C3=C(O)CCCC3=O)nc3ccccc32)s1` [I-270] was run?
Its value is 5.

And the “Herbicidal effects index, Scirpus juncoides Roxb. var. ohwianus. T. Koyama” value [2]?
The value was 5.

And the “Herbicidal effects index … (Roxb.) Solms-Laub.” value [3]?
Its value is 5.

And the “herbicidal effect (index) on Abutilon theophrasti medicus” value [4]?
The value was 5.

And the “herbicidal effect (index) on Echinochloa crus-galli (L.) P. Beauv. var. crus-galli” value [5]?
The value was 5.

And the “herbicidal effect (index) on Amaranthus viridis L.” value (Amaranthus viridis L. [6])?
Its value is 5.

What about the “herbicidal effect (index) on Abutilon theophrasti medicus” value [7] of the same molecule?
Its value is 5.

And the “herbicidal effect (index) on Amaranthus viridis L.” value (Amaranthus viridis L. [8])?
The value was 5.

`O=C1CCCC(O)=C1C(=O)c1nc2cccnc2n(Cc2ccccc2F)c1=O` [III-108] was tested. Which “Herbicidal effects index, Echinochloa oryzicola Vasing” value [1] did it give?
The value was 5.

And the “Herbicidal effects index, Scirpus juncoides Roxb. var. ohwianus. T. Koyama” value [2]?
Its value is 5.

What about the “Herbicidal effects index … (Roxb.) Solms-Laub.” value [3] of the same molecule?
The value was 5.

And the “herbicidal effects on Abutilon theophrasti medicus” value [4]?
Its value is 5.

And the “herbicidal effects on Echinochloa crus-galli (L.) P. Beauv. var. crus-galli” value [5]?
The value was 5.

What about the “herbicidal effects on Amaranthus viridis L.” value (Amaranthus viridis L. [6]) of the same molecule?
The value was 5.

And the “herbicidal effect (index) on Abutilon theophrasti medicus” value [7]?
The value was 5.

What about the “herbicidal effect (index) on Amaranthus viridis L.” value (Amaranthus viridis L. [8]) of the same molecule?
The value was 5.

Which “Herbicidal effects index, Echinochloa oryzicola Vasing” value [1] does the source give for `O=C1CCCC(O)=C1C(=O)c1nc2ccccc2n(-c2ccc3c(c2)OCO3)c1=O` [I-202, 1-(benzo[d][1,3]dioxol-5-yl)-3-(2-hydroxy-6-oxo-1-cyclohexenecarbonyl)-quinoxalin-2(1H)-one] here?
Its value is 5.

And the “Herbicidal effects index, Scirpus juncoides Roxb. var. ohwianus. T. Koyama” value [2]?
Its value is 5.

What about the “Herbicidal effects index … (Roxb.) Solms-Laub.” value [3] of the same molecule?
The value was 5.

What about the “herbicidal effect (index) on Abutilon theophrasti medicus” value [4] of the same molecule?
Its value is 5.

What about the “herbicidal effect (index) on Echinochloa crus-galli (L.) P. Beauv. var. crus-galli” value [5] of the same molecule?
The value was 4.

What about the “herbicidal effect (index) on Amaranthus viridis L.” value (Amaranthus viridis L. [6]) of the same molecule?
The value was 5.

What about the “herbicidal effect (index) on Abutilon theophrasti medicus” value [7] of the same molecule?
The value was 4.

What about the “herbicidal effect (index) on Amaranthus viridis L.” value (Amaranthus viridis L. [8]) of the same molecule?
Its value is 5.

Which “Herbicidal effects index, Echinochloa oryzicola Vasing” value [1] does the source give for `CC1(C)CC(=O)C(C(=O)c2nc3ccccc3n(-c3ccc4c(c3)OCCO4)c2=O)=C(O)C1` [II-228] here?
The value was 5.

What about the “Herbicidal effects index, Scirpus juncoides Roxb. var. ohwianus. T. Koyama” value [2] of the same molecule?
Its value is 5.

What about the “Herbicidal effects index … (Roxb.) Solms-Laub.” value [3] of the same molecule?
The value was 5.

What about the “herbicidal effects on Abutilon theophrasti medicus” value [4] of the same molecule?
Its value is 5.

What about the “herbicidal effects on Echinochloa crus-galli (L.) P. Beauv. var. crus-galli” value [5] of the same molecule?
Its value is 5.

What about the “herbicidal effects on Amaranthus viridis L.” value (Amaranthus viridis L. [6]) of the same molecule?
Its value is 5.

What about the “herbicidal effect (index) on Abutilon theophrasti medicus” value [7] of the same molecule?
Its value is 5.

What about the “herbicidal effect (index) on Amaranthus viridis L.” value (Amaranthus viridis L. [8]) of the same molecule?
Its value is 5.

With `CC1COc2cc(-n3c(=O)c(C(=O)C4=C(O)CCCC4=O)nc4ccccc43)ccc2O1` (stereo not drawn) [II-231] as the molecule, how does the “Herbicidal effects index, Echinochloa oryzicola Vasing” value [1] read?
The value was 5.

And the “Herbicidal effects index, Scirpus juncoides Roxb. var. ohwianus. T. Koyama” value [2]?
The value was 5.

And the “Herbicidal effects index … (Roxb.) Solms-Laub.” value [3]?
The value was 5.

And the “herbicidal effects on Abutilon theophrasti medicus” value [4]?
The value was 5.

And the “herbicidal effects on Echinochloa crus-galli (L.) P. Beauv. var. crus-galli” value [5]?
Its value is 5.

What about the “herbicidal effects on Amaranthus viridis L.” value (Amaranthus viridis L. [6]) of the same molecule?
Its value is 5.

What about the “herbicidal effect (index) on Abutilon theophrasti medicus” value [7] of the same molecule?
The value was 4.

What about the “herbicidal effect (index) on Amaranthus viridis L.” value (Amaranthus viridis L. [8]) of the same molecule?
The value was 5.

What does the source list for `O=C1CCCC(O)=C1C(=O)c1nc2ccccc2n(CC2CCCO2)c1=O` (stereo not drawn) [I-211]?
Herbicidal effects index, Echinochloa oryzicola Vasing [1]: 4; Herbicidal effects index, Scirpus juncoides Roxb. var. ohwianus. T. Koyama [2]: 5; Herbicidal effects index, Monochoria vaginalis (Burm. f.) Presl var. plantaginea (Roxb.) Solms-Laub. [3]: 5; herbicidal effect (index) on Abutilon theophrasti medicus [4]: 5; herbicidal effect (index) on Echinochloa crus-galli (L.) P. Beauv. var. crus-galli [5]: 5; herbicidal effect (index) on Amaranthus viridis L. (Amaranthus viridis L. [6]): 5; herbicidal effect (index) on Abutilon theophrasti medicus [7]: 5; herbicidal effect (index) on Amaranthus viridis L. (Amaranthus viridis L. [8]): 5

How did the “Herbicidal effects index, Echinochloa oryzicola Vasing” value [1] turn out when `Cc1ccc(-n2c(=O)c(C(=O)C3=C(O)CCCC3=O)nc3cccnc32)cc1` [IV-21] was run?
Its value is 5.

And the “Herbicidal effects index, Scirpus juncoides Roxb. var. ohwianus. T. Koyama” value [2]?
Its value is 5.

What about the “Herbicidal effects index … (Roxb.) Solms-Laub.” value [3] of the same molecule?
The value was 5.

What about the “herbicidal effects on Abutilon theophrasti medicus” value [4] of the same molecule?
Its value is 5.

What about the “herbicidal effects on Echinochloa crus-galli (L.) P. Beauv. var. crus-galli” value [5] of the same molecule?
The value was 5.

What about the “herbicidal effects on Amaranthus viridis L.” value (Amaranthus viridis L. [6]) of the same molecule?
Its value is 5.

And the “herbicidal effect (index) on Abutilon theophrasti medicus” value [7]?
The value was 5.

What about the “herbicidal effect (index) on Amaranthus viridis L.” value (Amaranthus viridis L. [8]) of the same molecule?
The value was 5.
